Data from US11547300B2, “Methods of treating and imaging tumor micrometastases using photoactive immunoconjugates” (priority 2014, dated 2023).

What was measured:
OVCAR5 cells = conditions: cited from earlier work
EOC (NIH:OVCAR5) tumors = conditions: mouse, in vivo
Method: Micrometastatic mouse model. An orthotopic xenograft mouse model of human ovarian carcinomatosis was established in our laboratory with gynecologic oncologists (30). Athymic Swiss female Nu/Nu mice (20-25 grams and 6-8 weeks old; Cox Breeding Laboratories) were injected intraperitoneally (i.p.) with 16×10^6 NIH:OVCAR5 (EOC) cells in 2 mL phosphate-buffered saline. All experiments were conducted according to Massachusetts General Hospital Institutional Animal Care and Use Committee (IACUC) guidelines.

Compound | resistance relative to a platinum sensitive cell line (OVCAR5 cells) | tumor-to-bowel ratio (EOC (NIH:OVCAR5) tumors) | tumor-to-bowel ratio from fitting the pharmacokinetic data to a model (EOC (NIH:OVCAR5) tumors)
N.N.[Cl][Pt][Cl] [cisplatin] | 7 fold |  | 
verteporfin |  | 2.7 | 2.8
